Results on 4 compounds are retold here after patent publication US7973064B2, “Method and composition for potentiating an opiate analgesic” (The Board of Trustees of the University of Illinois, priority 2001, dated 2011).

Entries after “also recorded” stand apart in the source; their conditions may differ. Square brackets hold non-standard residues; d marks the D form. Peptide text beside a SMILES is read from it.

Data set [1] deals with streptozotocin-induced diabetic rat. As to conditions: cited from earlier work; for increase in tactile allodynia thresholds: systemic administration.
In data set [2] the test system is mice rendered tolerant and dependent on morphine. Put plainly: Morphine tolerance in mice. It is filed as in vivo, mouse. Particulars: FIGS. 6-8. An excerpt: (§1) FIGS. 6-8 illustrate the ability of an endothelin antagonist to […] opiate analgesic tolerance in mice and rats rendered tolerant and dependent on morphine. The test method used to generate the data set forth in FIGS. 6-8 is disclosed in H. N. Bhargava et al., J. Pharmacol. Exp. Ther., 252(3), pp. 901-907 (1990). The method disclosed therein was modified slightly for mice because the smaller mice could not survive the morphine dose administered to the rats.

The subject of data set [3] is Male Sprague-Dawley rats. Put plainly: Tail flick analgesia in rats. As to conditions: for effect on tail flick latency (analgesia), drug alone: morphine 8 mg/kg s.c. or BQ123 10 μg i.c.v. Type of data set: in vivo, rat. On the procedure: (§2) Male Sprague-Dawley rats weighing 225 to 250 g (Sasco King Animal Co., Madison, Wis.) were housed in a room with controlled temperature (23±1° C.), humidity (50±10%), and light (6:00 a.m. to 6:00 p.m.) for at least four days prior to testing. Food and water were available to the rats continuously.
(§3) The rats were divided into four groups (FIG. 1): group 1 received vehicle (saline 5 μl, i.c.v. over 5 minutes) and vehicle (saline 100 μl/kg s.c.); group 2 received vehicle (saline 100 μl/kg, s.c.) and BQ123 (10 μg, i.c.v. in a volume of 5 μl over 5 minutes); group 3 received morphine (8 mg/kg, s.c. in a volume of 100 μl/kg) and vehicle (saline 100 μl/kg, s.c.); and group 4 received morphine (8 mg/kg, s.c. in a volume of 100 μl/kg) and BQ123 (10 μg, i.c.v. in a volume of 5 μl over 5 minutes). Vehicle or BQ123 treatment was performed 30 minutes prior to morphine administration.
(§4) Measurement of analgesic effect: The analgesic response to morphine was determined by the tail flick method. The tail flick latencies to thermal stimulation were determined before and 30, 60, 90, 120, 180, 210, 240, 270, 300, and 360 minutes after the morphine injection. […] A cutoff time of 10 seconds was used to prevent damage to the tail. The basal latency was subtracted from that induced by morphine. […] The differences in analgesic response to different doses of morphine were compared by using student's t test. A value of P<0.05 was considered significant.
(In general: In hot-plate and tail-flick tests a longer latency is read as antinociception.)

Data set [4] concerns mice. Put plainly: Tail flick analgesia in mice. It is filed as in vivo, mouse. Particulars: morphine 2, 4, and 8 mg/kg s.c. Here is the method:
(§5) Tests also were performed on mice. The mice were housed and fed similar to the rats as described above taking into consideration the size differential between rats and mice. The mice were divided into groups identical to the rats, but administered different amounts of vehicle, opiate analgesic, and endothelin antagonist, as disclosed hereafter.
as §4

For data set [5], the system named is Male Sprague-Dawley rats. Put plainly: Colonic temperature in rats. Type of data set: in vivo, rat. Particulars: for effect on body temperature, drug alone: morphine 8 mg/kg s.c. or BQ123 10 μg i.c.v. Here is the method: as §2, §3
Measurement of colonic temperature: The change in temperature in response to morphine was determined. The colonic temperature of each rat was recorded before and various times after morphine injection for a period of 360 minutes using a tele-thermometer. […] Rats used to measure tail flick latencies also were used to determine the colonic temperature. The differences in temperature response between various groups were compared by using student's t test. A value of P<0.05 was considered significant.

The test system of data set [6] is Male Sprague-Dawley rats. Kind of data set: Catalepsy bar test in rats. As to conditions: for catalepsy (bar test), drug alone: 45 minutes after morphine or vehicle, morphine 8 mg/kg s.c. or BQ123 10 μg i.c.v. Type of data set: in vivo, rat. Here is the method:
as §2, §3
Measurement of catalepsy: Rats were tested for catalepsy by the bar test. An aluminum bar 5 mm in diameter was placed 4 cm above the floor, and the animal's forepaw was gently placed on the bar. The time required for the animal to place at least one paw on the floor was measured with a maximum term of observation of 180 seconds. Behavioral evaluation of catalepsy was performed 45 minutes after the administration of morphine or its vehicle. Statistical tests were performed as described above.

A further data set in a line: Body weight in rats. Type of data set: in vivo, rat. Particulars: before any drug and seven hours after morphine, BQ123 10 μg i.c.v., morphine 8 mg/kg s.c. Here is the method:
as §3
Effect on body weight: Body weight was measured in all groups of rats of FIG. 1. […] Body weight was measured before administering any drug and at the end of the experiment, i.e., seven hours after the administration of morphine.

The test system of data set [7] is mice. Particulars: BQ123 and morphine 2, 4, or 8 mg/kg. On the procedure: as §5
Data set [8] in a line: Body weight in mice given BQ123 and morphine. Type of data set: in vivo, mouse. As to conditions: BQ123 and morphine 2, 4, or 8 mg/kg. Here is the method:
Tests also were performed on mice.

Data set [9] deals with morphine tolerant dependent rats. Put plainly: Tolerance to analgesic effect in morphine tolerant dependent rats. Particulars: 6 morphine pellets in 7-day period, BQ123 10 μg i.c.v. twice a day for 7 days. It is filed as in vivo, rat. Here is the method: as §1
(§6) The effect of BQ123 (3 μg, i.c.v.) on naloxone-precipitated morphine withdrawal also was determined in mice. […] Tests also were performed to determine tolerance to analgesic effect in morphine tolerant dependent rats (6 morphine pellets in 7-day period).

The subject of a further data set is morphine tolerant mice. Kind of data set: Naloxone-precipitated morphine withdrawal in mice. Type of data set: in vivo, mouse. As to conditions: 1 morphine 75 mg pellet for 3 days, naloxone 1 mg/kg i.p., BQ123 3 μg i.c.v. Here is the method: as §6
For the next data set, the system named is rat sciatic nerve. As to conditions: ET-1 200 to 800 μM applied to sciatic nerve, pretreatment; cited from earlier work.
For data set [10], the system named is Cr1:CD-1(ICR)BR mice and CXBK mice. Particulars: ET-1 intraperitoneally, through μ1 sensitive pathway; cited from earlier work.
The mark [11] stands for this setting: BQ123 10 μg i.c.v. 30 minutes prior to morphine 8 mg/kg s.c.

In the case of `CCCCN(CCCC)C(=O)CN1C[C@H](c2ccc3c(c2)OCO3)[C@@H](C(=O)O)[C@@H]1c1ccc(OC)cc1` [ABT-627], the “antinociceptive effect following chronic administration” value in [1] (in drinking water for 7 days) is on record as “maintained”. Further, the “increase in tactile allodynia thresholds” value in data set [1] is on record as 40 to 50%.
For the compound `Cc1noc(NS(=O)(=O)c2cccc3c(N(C)C)cccc23)c1C` [BMS182874], the “morphine tolerance after treatment with endothelin antagonist” value in data set [2] is “reduced morphine tolerance”.
`CC(C)C[C@@H]1NC(=O)[C@@H](C(C)C)NC(=O)[C@@H]2CCCN2C(=O)[C@@H](CC(=O)O)NC(=O)[C@@H](Cc2c[nH]c3ccccc23)NC1=O` [BQ123, cyclo(-D-Trp-D-Asp-Pro-D-Val-Leu-)] (cyclo(L[dW][dD]P[dV])): in the data set on Male Sprague-Dawley rats [3] (setting [11]), the “duration of morphine analgesia in BQ123 pretreated rats” value is recorded as “more than six” and the “effect of BQ123 on analgesic effect of morphine” value is given as “significantly potentiated”. In addition, in the data set with Male Sprague-Dawley rats [3], the “effect on tail flick latency (analgesia), drug alone” value is “did not produce any significant effect on tail flick latency”. Moreover, in the data set on mice [4] (BQ123 3 μg i.c.v.), the “duration of morphine analgesia with BQ123” value is recorded as “more than 4 hours” and the “effect of BQ123 on morphine analgesia” value is “significantly potentiated morphine analgesia; also recorded: analgesia was potentiated”. In addition, in the data set with Male Sprague-Dawley rats [5] (setting [11]), the “duration of morphine hyperthermia in BQ123 pretreated rats” value is given as “more than six” and the “effect of BQ123 on hyperthermic effect of morphine” value is “significantly potentiated”. In addition, the “effect on body temperature, drug alone” value with Male Sprague-Dawley rats [5] is listed as “did not produce any significant effect on body temperature”. For the same compound, in the data set on Male Sprague-Dawley rats [6], the “catalepsy (bar test), drug alone” value was “did not produce any cataleptic effect”. Further, the “effect of BQ123 pretreatment on morphine-induced catalepsy” value with Male Sprague-Dawley rats [6] (setting [11]) is given as “did not produce any change in morphine-induced catalepsy”. For the same compound, the “change in body weight” value in “Body weight in rats” is recorded as “no change in body weight”. Also, the “effect of BQ123 on morphine-induced hypothermia” value in the data set with mice [7] is on record as “not affected”. The “effect on body weight” value in data set [8] is on record as “not affected”. In addition, the “morphine tolerance after treatment with endothelin antagonist” value in data set [2] was “reduced morphine tolerance”. In addition, in data set [9], the “development of tolerance to morphine analgesic effect” value is given as “did not become tolerant to morphine”. Moreover, the “effect on naloxone-precipitated morphine withdrawal symptoms” value in the data set with morphine tolerant mice was “did not affect hypothermia, loss of body weight, jumping behavior, falls, diarrhea, fecal boli, urination, ptosis, writhing, and rearing behavior during withdrawal; also recorded: no effect on temperature, body weight, urination, diarrhea, jumping behavior, number of falls, ptosis, and grooming”. In the data set on rat sciatic nerve, the “effect on ET-1 induced hindpaw flinching” value is “blocked”.
For the compound `CN1CC[C@]23c4c5ccc(O)c4O[C@H]2[C@@H](O)C=C[C@H]3[C@H]1C5` [morphine], the “time after administration until which tail flick latencies were significantly increased, morphine alone” value in the data set on Male Sprague-Dawley rats [3] (morphine 8 mg/kg s.c.) is “three”. The “effect on tail flick latency (analgesia), drug alone” value in the data set on Male Sprague-Dawley rats [3] is reported as “produced significant analgesia”. For the same compound, in the data set on Male Sprague-Dawley rats [3] (morphine 8 mg/kg s.c., control about 2 seconds), the tail flick latency result is given as “more than 10 seconds”. In the data set on mice [4], the “duration of increase in tail flick latency, morphine alone” value was 1.5 h and the “effect on mouse tail flick latency, morphine alone” value is “significant increase in mouse tail flick latency”. In the data set with Male Sprague-Dawley rats [5] (morphine 8 mg/kg s.c.), the “duration of hyperthermia, morphine alone” value is reported as “about four”. For the same compound, the “effect on body temperature, drug alone” value in the data set with Male Sprague-Dawley rats [5] is listed as “produced significant hyperthermia”. In addition, the “catalepsy (bar test), drug alone” value in the data set with Male Sprague-Dawley rats [6] was “significantly increased catalepsy”. In “Body weight in rats”, the “change in body weight” value is given as “neither morphine nor BQ123 produced any acute effect on body weight”. The “increase in tactile allodynia thresholds” value in [1] was 90%. Further, the “effect on ET-1 induced hindpaw flinching” value in the data set on rat sciatic nerve is given as “completely blocked”. Also, the “effect on ET-1 induced nociception” value in data set [10] is listed as “could be blocked by morphine”.
